Measurements taken from ChEMBL document CHEMBL1765013, “Structure-activity relationships in a series of C2-substituted gluco-configured tetrahydroimidazopyridines as β-glucosidase inhibitors” (Bioorg Med Chem, 2011).

experiment: Inhibition of sweet almond beta-glucosidase after 10 mins using 4-nitrophenylbeta-D-glucopyranoside as a substrate by Lineweaver-Burk and double reciprocal analysis; design: species or system Prunus dulcis

| SMILES | Ki [nM] |
| --- | --- |
| CC(C)(CCc1cn2c(n1)[C@H](O)[C@@H](O)[C@H](O)[C@H]2CO)C(=O)Nc1ccccc1 | 3.5 |
| OC[C@@H]1[C@@H](O)[C@H](O)[C@@H](O)c2nc(CCc3ccc(-c4ccccc4)cc3)cn21 | 24.5 |
| CCCCCCCCc1cn2c(n1)[C@H](O)[C@@H](O)[C@H](O)[C@H]2CO | 10.7 |
| OC[C@@H]1[C@@H](O)[C@H](O)[C@@H](O)c2nc(CCc3ccc(F)cc3)cn21 | 3.2 |
| OC[C@@H]1[C@@H](O)[C@H](O)[C@@H](O)c2nccn21 | 100 |
| OC[C@@H]1[C@@H](O)[C@H](O)[C@@H](O)c2nc(CCc3ccc(C4CCCCC4)cc3)cn21 | 56.1 |
| O=C(CCc1cn2c(n1)[C@H](O)[C@@H](O)[C@H](O)[C@H]2CO)Nc1ccccc1 | 6.8 |

Now those with a lower Ki, led by results:

| Ki [nM] | SMILES |
| --- | --- |
| 2 | COc1ccc(CCc2cn3c(n2)[C@H](O)[C@@H](O)[C@H](O)[C@H]3CO)cc1 |
| 1.9 | OC[C@@H]1[C@@H](O)[C@H](O)[C@@H](O)c2nc(CCc3ccccc3)cn21 |
| 0.64 | CC(C)(C)CCc1cn2c(n1)[C@H](O)[C@@H](O)[C@H](O)[C@H]2CO |
| 0.58 | Cc1ccc(CCc2cn3c(n2)[C@H](O)[C@@H](O)[C@H](O)[C@H]3CO)cc1 |
